Measured values taken from ChEMBL document CHEMBL1201862, “PubChem BioAssay data set” (2004).
Activity calls are given as the source filed them.

Tests used:
[1] = target: T1, Melanocortin receptor 4 (Homo sapiens, UniProt P32245); assay: inhibitors of MC4R cAMP signaling – cell-based, TR-FRET, biased antagonists, dose response (AID 602298); assay type: functional;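 note: antagonist potency against agonist-stimulated cAMP production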
[2] = cAMP pathway inhibition in counterscreen cell line – TR-FRET cAMP detection, counter-screen for MC4R biased antagonist project, dose response (AID 602305); assay type: functional, cell-based;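 note: U2OS cells stimulated with forskolin near its EC80 as the cAMP inducer; potency is for inhibition of forskolin-stimulated cAMP signaling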
[3] = target: T2, Mitochondrial peptide methionine sulfoxide reductase (Bos taurus, UniProt P54149); assay type: functional;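 note: absorbance read-out, biochemical high-throughput dose-response screen for MsrA inhibitors, confirmatory; recombinant bovine MsrA coupled to E. coli TrxB with NADPH and selenocystamine; potency is for inhibitors of MsrA activity on DMSO substrate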
T2 sequence (P54149 whole entry): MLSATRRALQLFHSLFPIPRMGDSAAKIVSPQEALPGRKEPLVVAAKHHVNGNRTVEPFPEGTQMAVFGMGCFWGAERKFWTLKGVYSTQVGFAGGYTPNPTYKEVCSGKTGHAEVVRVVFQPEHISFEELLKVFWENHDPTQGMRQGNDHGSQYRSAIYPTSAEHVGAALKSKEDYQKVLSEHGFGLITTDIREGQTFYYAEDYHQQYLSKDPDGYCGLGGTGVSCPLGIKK

[4] = target: Serine/threonine-protein kinase pim-1 (Homo sapiens, UniProt P11309); assay type: functional
[5] = target: Receptor-type tyrosine-protein kinase FLT3 (Homo sapiens, UniProt P36888); assay type: functional;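 note: FLT3 was tested as one member of a kinome-wide kinase panel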
[6] = target: T1, Melanocortin receptor 4; assay type: functional, cell-based
[7] = target: Cytochrome P450 2D6 (Homo sapiens, UniProt P10635);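 note: CYP2D6 member of a cytochrome P450 panel assay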
[8] = target: Cytochrome P450 2C9 (Homo sapiens, UniProt P11712)
[9] = target: Cytochrome P450 3A4 (Homo sapiens, UniProt P08684);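 note: CYP3A4 tested as one member of a cytochrome P450 panel screen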
[10] = target: Estrogen receptor beta (Homo sapiens, UniProt Q92731);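 note: recombinant ER-beta bound to coactivator SRC1 peptide in presence of estradiol agonist; inhibitors block coactivator peptide binding and lower the FRET signal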
[11] = system: INS1; assay: suppression of NO production in INS-1E cells – cell-based, Griess absorbance, dry powder, set 2, dose response (AID 488868); assay type: functional; settings: Rattus norvegicus
[12] = suppression of NO production in INS-1E cells – cell-based, Griess absorbance, dry powder, set 3, dose response (AID 488870); assay type: functional; settings: Rattus norvegicus
[13] = target: Aryl hydrocarbon receptor (Homo sapiens, UniProt P35869); settings: Potency;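 note: confirmatory quantitative high-throughput screen measuring activation of the AhR signaling pathway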
[14] = target: T3, High affinity choline transporter 1 (Homo sapiens, UniProt Q9GZV3); assay: human choline transporter blockers, potency – cell-based, 5-point CRC, membrane potential dye, dose response (AID 504840); assay type: functional
T3 sequence (Q9GZV3 whole entry): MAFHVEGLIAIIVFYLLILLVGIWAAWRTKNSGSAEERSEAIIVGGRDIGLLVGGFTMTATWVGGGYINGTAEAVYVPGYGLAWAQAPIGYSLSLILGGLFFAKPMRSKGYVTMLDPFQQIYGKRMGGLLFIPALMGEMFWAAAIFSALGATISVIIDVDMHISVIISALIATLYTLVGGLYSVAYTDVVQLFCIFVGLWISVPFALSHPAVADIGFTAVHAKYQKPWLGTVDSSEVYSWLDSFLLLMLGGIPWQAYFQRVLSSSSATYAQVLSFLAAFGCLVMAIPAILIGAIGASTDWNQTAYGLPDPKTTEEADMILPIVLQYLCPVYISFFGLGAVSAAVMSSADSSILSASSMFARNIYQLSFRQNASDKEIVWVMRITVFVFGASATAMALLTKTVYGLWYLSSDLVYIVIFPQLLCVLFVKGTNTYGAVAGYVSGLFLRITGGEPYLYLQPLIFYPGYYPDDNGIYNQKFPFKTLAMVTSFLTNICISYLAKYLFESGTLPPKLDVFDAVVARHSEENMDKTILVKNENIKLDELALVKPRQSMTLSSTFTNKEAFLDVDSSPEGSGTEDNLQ

[15] = target: T3, High affinity choline transporter 1; assay: human choline transporter blockers, potency – cell-based, 10-point CRC, membrane potential dye, dose response (AID 588401); assay type: functional;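 note: membrane potential dye fluorescence of choline-evoked depolarization via CHT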
[16] = target: Aurora kinase B (Homo sapiens, UniProt Q96GD4); assay type: functional
[17] = target: Aurora kinase A (Homo sapiens, UniProt O14965); assay type: functional;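 note: value from the Navigating the Kinome kinase panel profiling, panel entry STK6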
[18] = P. falciparum Dd2 growth inhibitors, dose response, SYBR Green, cherry-picked samples (AID 1159567); assay type: functional, cell-based
[19] = target: Protein Wnt-3a (Mus musculus, UniProt P27467); assay: antagonism of Wnt3a pathway luciferase reporter – Wnt-LIGHT cells, luminescence, selectivity assay for Gli-SUFU antagonist project, dose response (AID 651570); assay type: functional; settings: read-out: IC50_Mean;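 note: Wnt-LIGHT reporter cells stimulated with conditioned medium from Wnt3a-producing cells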
[20] = target: T4, Coagulation factor XII (Homo sapiens, UniProt P00748); assay type: functional;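 note: activated factor XIIa alpha cleaving a fluorogenic AMC peptide substrate; inhibitor potency from loss of enzyme activity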
T4 sequence (P00748 whole entry): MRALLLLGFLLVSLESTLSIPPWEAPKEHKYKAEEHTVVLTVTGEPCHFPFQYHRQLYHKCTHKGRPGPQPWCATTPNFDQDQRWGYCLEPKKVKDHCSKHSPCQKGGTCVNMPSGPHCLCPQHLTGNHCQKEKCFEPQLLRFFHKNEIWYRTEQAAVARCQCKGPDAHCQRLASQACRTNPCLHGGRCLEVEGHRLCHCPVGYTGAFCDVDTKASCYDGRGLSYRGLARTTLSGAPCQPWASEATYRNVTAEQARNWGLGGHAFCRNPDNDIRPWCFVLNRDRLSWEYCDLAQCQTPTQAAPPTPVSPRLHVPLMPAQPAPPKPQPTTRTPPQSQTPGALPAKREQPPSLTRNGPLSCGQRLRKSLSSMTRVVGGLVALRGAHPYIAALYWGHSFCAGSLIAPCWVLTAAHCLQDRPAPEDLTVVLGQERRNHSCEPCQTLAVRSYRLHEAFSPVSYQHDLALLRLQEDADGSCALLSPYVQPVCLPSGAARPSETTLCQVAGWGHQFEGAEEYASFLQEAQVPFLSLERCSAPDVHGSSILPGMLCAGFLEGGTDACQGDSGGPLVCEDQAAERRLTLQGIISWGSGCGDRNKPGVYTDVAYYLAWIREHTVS

[21] = DRD fibroblast viability loss – cell-based, non-viral oncogenic, luminescence, dose response (AID 1934); assay type: functional; settings: Homo sapiens
[22] = system: BJ; assay: cells; assay type: functional, cell-based; settings: Homo sapiens
[23] = target: Beta-lactamase (Pseudomonas aeruginosa, UniProt Q79MP6);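 note: biochemical dose-response test of metallo-beta-lactamase enzyme inhibition, read out by epi-absorbance; purified recombinant IMP-1 metallo-beta-lactamase with nitrocefin as substrate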
[24] = target: T5, Endoribonuclease toxin MazF (Escherichia coli K-12, UniProt P0AE70); assay: substrate-only fluorescence increase artefacts – biochemical, single-stranded RNase substrate, counter-screen for MazEF activator project, dose response (AID 588502); assay type: functional
T5 sequence (P0AE70 whole entry): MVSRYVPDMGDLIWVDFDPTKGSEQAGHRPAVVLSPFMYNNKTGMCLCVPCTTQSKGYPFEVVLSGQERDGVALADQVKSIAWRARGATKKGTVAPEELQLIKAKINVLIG

[25] = target: Beta-lactamase (Salmonella choleraesuis (strain SC-B67), UniProt Q5J463)
[26] = system: BJ; assay: BJ-TERT-LT-ST fibroblast viability loss – cell-based, RAS-independent, luminescence, dose response (AID 1935); assay type: functional; settings: Homo sapiens;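 note: BJ fibroblasts immortalized with TERT plus LT and ST oncogenes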
[27] = target: T5, Endoribonuclease toxin MazF; assay: activation of MazEF endoribonuclease cleavage – biochemical, fluorescence, single-stranded RNA substrate, uHTS hits, dose response (AID 588481); assay type: functional
[28] = target: Beta Lactamase (Pseudomonas aeruginosa, UniProt Q932Y6);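 note: confirmatory high-throughput screen measuring VIM-2 metallo-beta-lactamase inhibition by epi-absorbance in dose response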
[29] = target: Troponin, cardiac muscle (Homo sapiens, UniProt P19429+P45379+P63316); assay: Fluorescence-based biochemical high throughput dose response assay for activators of the calcium sensitivity of cardiac Regulated Thin Filaments (RTF). [Related pubchem assays (depositor defined):AID493008, AID493018, AID504382, AID504383]; assay type: protein-complex assay
[30] = system: BJ; assay: BJ-TERT fibroblast viability loss – cell-based, RAS-independent, luminescence, dose response (AID 1933); assay type: functional; settings: Homo sapiens
[31] = target: T6, Apoptotic protease-activating factor 1 (Homo sapiens, UniProt O14727); assay: SAR analysis of small molecule Activators of Apaf-1 in a Fluorescent assay.; assay type: functional; settings: read-out: EC50_Mean;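 note: caspase-3 cleavage of fluorogenic Rh110 DEVD substrate downstream of apoptosome activation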
T6 sequence (O14727 whole entry): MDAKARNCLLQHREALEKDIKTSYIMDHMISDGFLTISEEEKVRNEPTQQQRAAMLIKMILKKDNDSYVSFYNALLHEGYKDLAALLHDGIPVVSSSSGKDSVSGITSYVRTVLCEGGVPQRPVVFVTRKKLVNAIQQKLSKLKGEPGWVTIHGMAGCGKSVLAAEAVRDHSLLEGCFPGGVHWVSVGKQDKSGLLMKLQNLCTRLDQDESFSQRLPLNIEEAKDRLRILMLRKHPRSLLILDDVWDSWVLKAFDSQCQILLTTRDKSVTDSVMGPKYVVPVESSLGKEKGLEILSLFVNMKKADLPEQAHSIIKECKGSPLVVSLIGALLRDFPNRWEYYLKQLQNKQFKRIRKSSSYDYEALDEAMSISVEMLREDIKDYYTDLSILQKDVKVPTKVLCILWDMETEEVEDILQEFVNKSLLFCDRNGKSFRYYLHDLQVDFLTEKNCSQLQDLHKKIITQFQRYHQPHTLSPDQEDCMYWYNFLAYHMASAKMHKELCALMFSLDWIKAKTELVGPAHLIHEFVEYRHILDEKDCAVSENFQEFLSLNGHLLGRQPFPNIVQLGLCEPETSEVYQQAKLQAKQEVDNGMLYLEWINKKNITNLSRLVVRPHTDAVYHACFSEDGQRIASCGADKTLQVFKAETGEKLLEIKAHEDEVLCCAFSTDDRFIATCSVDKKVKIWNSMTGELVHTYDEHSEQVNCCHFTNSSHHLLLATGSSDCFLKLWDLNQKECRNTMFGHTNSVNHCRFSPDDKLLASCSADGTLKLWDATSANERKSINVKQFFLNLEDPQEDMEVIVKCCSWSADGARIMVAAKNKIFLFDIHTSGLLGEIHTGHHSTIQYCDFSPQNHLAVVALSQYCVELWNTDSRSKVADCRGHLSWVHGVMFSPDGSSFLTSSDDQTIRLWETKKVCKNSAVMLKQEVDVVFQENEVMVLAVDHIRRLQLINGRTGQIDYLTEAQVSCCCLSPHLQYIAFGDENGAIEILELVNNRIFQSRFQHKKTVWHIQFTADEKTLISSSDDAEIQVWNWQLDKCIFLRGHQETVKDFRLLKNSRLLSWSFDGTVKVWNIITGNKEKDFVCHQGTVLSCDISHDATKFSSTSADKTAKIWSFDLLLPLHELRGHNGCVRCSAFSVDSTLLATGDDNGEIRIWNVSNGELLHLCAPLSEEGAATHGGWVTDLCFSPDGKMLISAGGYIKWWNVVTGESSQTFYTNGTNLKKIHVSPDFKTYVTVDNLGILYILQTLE

[32] = target: Adenosylmethionine-8-amino-7-oxononanoate aminotransferase (Mycobacterium tuberculosis, UniProt P9WQ81); assay: Mycobacterium tuberculosis BioA enzyme inhibitor Measured in Biochemical System Using Plate Reader - 2163-02_Inhibitor_Dose_CherryPick_Activity.; assay type: functional, Mycobacterium tuberculosis UT205
Sequence of Adenosylmethionine-8-amino-7-oxononanoate aminotransferase (P9WQ81 whole entry): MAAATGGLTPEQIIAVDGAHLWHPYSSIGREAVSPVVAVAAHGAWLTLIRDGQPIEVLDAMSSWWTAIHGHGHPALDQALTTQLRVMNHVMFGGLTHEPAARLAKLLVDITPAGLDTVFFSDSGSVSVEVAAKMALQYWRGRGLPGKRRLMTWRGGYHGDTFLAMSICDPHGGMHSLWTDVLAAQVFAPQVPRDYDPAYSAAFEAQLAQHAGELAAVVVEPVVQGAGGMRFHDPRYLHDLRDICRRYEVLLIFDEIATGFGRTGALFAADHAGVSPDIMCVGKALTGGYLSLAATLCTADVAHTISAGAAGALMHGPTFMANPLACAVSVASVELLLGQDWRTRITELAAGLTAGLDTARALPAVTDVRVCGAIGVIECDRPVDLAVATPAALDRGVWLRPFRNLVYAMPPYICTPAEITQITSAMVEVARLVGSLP

T1 sequence (P32245 whole entry): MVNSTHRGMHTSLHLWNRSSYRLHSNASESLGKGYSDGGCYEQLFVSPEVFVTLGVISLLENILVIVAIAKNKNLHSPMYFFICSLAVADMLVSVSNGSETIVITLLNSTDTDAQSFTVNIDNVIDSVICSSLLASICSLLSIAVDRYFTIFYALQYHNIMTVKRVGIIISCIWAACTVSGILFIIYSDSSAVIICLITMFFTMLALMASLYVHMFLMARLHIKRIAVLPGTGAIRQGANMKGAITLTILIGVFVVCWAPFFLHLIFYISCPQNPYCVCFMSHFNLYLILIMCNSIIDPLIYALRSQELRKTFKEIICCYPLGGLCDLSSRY
Sequence of Beta-lactamase (Salmonella choleraesuis (strain SC-B67), UniProt Q5J463) (Q5J463 whole entry): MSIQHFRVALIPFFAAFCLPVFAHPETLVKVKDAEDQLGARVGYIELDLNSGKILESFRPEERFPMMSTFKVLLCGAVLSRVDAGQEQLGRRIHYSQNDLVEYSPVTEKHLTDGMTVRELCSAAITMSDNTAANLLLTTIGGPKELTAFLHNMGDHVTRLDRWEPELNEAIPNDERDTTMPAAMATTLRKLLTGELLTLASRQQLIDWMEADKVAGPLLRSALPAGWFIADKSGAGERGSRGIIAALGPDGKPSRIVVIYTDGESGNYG
Sequence of Cytochrome P450 2C9 (P11712 whole entry): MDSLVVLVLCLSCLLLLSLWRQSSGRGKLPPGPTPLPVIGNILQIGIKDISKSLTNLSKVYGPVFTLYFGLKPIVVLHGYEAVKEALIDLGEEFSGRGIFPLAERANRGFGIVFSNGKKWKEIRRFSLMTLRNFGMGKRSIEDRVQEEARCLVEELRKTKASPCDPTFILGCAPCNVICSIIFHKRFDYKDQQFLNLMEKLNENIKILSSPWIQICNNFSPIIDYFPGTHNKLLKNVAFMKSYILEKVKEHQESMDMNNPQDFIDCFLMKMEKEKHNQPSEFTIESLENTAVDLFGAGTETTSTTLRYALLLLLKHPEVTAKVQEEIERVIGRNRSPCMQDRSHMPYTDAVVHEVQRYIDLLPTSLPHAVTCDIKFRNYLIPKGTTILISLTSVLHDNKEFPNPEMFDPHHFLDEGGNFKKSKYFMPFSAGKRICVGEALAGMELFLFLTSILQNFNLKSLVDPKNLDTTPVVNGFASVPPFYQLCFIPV
Sequence of Beta-lactamase (Pseudomonas aeruginosa, UniProt Q79MP6) (Q79MP6 whole entry): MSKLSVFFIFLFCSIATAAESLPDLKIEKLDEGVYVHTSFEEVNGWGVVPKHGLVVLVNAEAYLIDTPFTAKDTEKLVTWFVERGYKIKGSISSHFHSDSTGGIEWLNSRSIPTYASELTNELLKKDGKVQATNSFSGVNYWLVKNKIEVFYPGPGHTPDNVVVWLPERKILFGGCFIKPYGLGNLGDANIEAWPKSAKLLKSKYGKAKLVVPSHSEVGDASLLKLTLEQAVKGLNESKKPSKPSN
Sequence of Estrogen receptor beta (Q92731 whole entry): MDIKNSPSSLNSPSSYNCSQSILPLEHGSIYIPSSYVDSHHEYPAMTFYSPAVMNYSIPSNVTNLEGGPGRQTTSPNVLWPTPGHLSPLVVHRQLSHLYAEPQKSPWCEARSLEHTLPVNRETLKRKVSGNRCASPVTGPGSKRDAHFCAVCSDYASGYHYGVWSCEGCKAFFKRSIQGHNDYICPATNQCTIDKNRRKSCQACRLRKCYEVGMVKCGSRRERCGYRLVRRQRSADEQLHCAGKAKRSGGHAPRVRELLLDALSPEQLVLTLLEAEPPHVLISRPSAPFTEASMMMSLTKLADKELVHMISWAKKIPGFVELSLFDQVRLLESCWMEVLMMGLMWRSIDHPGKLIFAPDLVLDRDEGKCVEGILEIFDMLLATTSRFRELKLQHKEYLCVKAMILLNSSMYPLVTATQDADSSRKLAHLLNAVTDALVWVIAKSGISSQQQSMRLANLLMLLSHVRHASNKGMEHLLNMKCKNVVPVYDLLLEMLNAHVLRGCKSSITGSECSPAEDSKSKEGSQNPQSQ
Sequence of Protein Wnt-3a (P27467 whole entry): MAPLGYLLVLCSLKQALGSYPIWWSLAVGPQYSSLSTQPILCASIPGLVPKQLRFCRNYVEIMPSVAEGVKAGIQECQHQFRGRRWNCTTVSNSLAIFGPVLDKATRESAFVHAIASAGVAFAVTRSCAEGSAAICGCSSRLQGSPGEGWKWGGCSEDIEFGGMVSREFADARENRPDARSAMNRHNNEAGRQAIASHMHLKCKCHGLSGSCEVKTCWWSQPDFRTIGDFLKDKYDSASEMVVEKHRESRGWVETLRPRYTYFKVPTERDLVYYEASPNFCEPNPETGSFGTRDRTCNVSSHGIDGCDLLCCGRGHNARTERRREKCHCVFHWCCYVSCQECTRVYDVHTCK
Sequence of Receptor-type tyrosine-protein kinase FLT3 (P36888 whole entry): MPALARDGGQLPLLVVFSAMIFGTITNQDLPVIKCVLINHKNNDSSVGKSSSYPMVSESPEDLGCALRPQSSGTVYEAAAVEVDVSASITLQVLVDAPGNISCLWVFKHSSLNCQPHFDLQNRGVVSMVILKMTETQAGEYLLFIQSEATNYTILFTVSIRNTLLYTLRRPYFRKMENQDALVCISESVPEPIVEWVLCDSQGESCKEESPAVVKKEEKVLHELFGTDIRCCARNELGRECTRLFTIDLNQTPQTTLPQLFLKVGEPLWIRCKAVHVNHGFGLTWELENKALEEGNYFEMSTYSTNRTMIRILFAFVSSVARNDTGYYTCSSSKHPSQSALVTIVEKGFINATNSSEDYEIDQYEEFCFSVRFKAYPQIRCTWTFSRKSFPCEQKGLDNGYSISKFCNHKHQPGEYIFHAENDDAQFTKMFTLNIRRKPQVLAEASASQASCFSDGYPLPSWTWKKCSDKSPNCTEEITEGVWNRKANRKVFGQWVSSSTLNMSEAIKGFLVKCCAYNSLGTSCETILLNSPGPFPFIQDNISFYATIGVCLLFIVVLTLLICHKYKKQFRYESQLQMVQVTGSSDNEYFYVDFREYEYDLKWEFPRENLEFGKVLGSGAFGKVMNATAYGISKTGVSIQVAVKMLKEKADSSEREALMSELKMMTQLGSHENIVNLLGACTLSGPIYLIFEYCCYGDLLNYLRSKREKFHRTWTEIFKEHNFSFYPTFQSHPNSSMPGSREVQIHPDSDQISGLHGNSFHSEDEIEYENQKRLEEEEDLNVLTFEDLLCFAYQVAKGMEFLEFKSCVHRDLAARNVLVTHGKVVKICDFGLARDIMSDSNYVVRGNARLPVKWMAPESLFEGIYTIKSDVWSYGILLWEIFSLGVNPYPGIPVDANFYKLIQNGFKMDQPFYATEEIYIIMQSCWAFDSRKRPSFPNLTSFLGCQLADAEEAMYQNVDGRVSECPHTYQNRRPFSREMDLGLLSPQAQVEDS
Sequence of Serine/threonine-protein kinase pim-1 (P11309 whole entry): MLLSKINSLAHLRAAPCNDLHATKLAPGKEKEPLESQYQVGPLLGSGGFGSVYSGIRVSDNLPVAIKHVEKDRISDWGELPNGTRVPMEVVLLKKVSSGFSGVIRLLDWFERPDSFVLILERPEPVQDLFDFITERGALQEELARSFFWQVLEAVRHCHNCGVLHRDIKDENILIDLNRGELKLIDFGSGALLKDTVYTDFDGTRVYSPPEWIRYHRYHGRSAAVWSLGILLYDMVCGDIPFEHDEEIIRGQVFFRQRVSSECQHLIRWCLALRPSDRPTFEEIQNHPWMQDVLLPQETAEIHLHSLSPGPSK
Sequence of Aurora kinase B (Q96GD4 whole entry): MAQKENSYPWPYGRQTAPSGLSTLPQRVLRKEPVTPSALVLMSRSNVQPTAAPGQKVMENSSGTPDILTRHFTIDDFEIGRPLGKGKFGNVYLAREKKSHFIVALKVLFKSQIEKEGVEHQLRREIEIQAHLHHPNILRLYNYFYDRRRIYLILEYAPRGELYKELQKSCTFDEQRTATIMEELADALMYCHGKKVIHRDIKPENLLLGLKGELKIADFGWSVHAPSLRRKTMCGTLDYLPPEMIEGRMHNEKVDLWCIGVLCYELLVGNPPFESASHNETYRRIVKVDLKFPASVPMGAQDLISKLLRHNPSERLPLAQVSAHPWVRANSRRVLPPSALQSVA
Sequence of Cytochrome P450 3A4 (P08684 whole entry): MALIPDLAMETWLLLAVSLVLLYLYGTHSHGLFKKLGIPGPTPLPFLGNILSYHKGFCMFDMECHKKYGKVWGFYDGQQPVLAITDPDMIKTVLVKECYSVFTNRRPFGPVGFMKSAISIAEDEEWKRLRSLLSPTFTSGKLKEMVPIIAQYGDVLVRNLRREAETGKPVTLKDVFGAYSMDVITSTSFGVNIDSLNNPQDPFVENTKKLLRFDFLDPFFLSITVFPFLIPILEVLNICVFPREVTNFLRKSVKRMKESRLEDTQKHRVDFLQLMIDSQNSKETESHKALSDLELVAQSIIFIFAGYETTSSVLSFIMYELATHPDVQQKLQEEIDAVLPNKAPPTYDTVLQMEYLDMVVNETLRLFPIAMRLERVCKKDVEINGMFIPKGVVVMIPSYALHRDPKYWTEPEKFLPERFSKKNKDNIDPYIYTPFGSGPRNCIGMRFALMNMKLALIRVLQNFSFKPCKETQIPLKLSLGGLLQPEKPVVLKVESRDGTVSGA

## CCOC(=O)c1cc(C)nc(S(C)(=O)=O)c1C#N
[1]
  IC50: > 64.6 µM (inactive)
[2]
  IC50: > 64.6 µM (inactive)

## COc1ccc(/C=N\NC(=O)/C(=C\Nc2nccc(C)n2)NC(=O)c2ccccc2)cc1
[3]
  IC50: 149 µM (inactive)

## c1ccc(C2Cc3cn[nH]c3C2)cc1 (stereo not drawn)
[4]
  Ki: 79.4 µM (active)
[5]
  Ki: 15.8 µM (active)

## CCOC(=O)CCC(=O)Nc1ccc(S(=O)(=O)N2CCc3ccccc32)cc1
[1]
  IC50: > 64.6 µM (inactive)
[2]
  IC50: > 64.6 µM (inactive)

## CCOc1cc(NC(=O)c2cccs2)c(OCC)cc1NC(=O)c1ccco1
[6]
  EC50: > 89.1 µM (inactive)
[7]
  AC50: 0.708 µM (inconclusive)
[8]
  AC50: 0.0355 µM (inconclusive)
[9]
  AC50: 0.178 µM (inconclusive)
[10]
  IC50: > 50 µM (not active)

## COc1ccccc1S(=O)(=O)N(C)C[C@@H]1Oc2c(NC(=O)Nc3cccc4ccccc34)cccc2C(=O)N([C@@H](C)CO)C[C@H]1C
[11]
  AC50: 47.2 µM (active)
[12]
  AC50: 45.1 µM (active)

## N#CSCSc1nc2ccccc2s1
[13]
  AC50: 50.1 µM (inconclusive)

## Cc1noc(C)c1COC(=O)c1cnc(Cl)c(Cl)c1
[14]
  IC50: 10 µM (active)
[15]
  IC50: 5.01 µM (active)

## Cc1cc(N=Cc2ccc(O)c(O)c2)c2ccccc2n1
[16]
  Ki: 0.00631 µM (active)
[17]
  Ki: 0.0251 µM (active)

## C[C@@H]1CN([C@@H](C)CO)C(=O)c2cccc(NC(=O)Nc3cccc4ccccc34)c2O[C@H]1CN(C)C(=O)NC1CCCCC1
[11]
  AC50: 24.6 µM (active)
[18]
  AC50: 5.39 µM (active)
[12]
  AC50: 37.8 µM (active)

## COc1ccc(C(=O)C[n+]2cccc(C)c2)cc1
[14]
  IC50: 2.43 µM (active)
[15]
  IC50: 2.05 µM (active)

## COc1ccc(C2=[N+](C)CCn3cccc32)c(OC)c1
[19]
  IC50: 7 µM (active)
[20]
  IC50: > 50 µM (inactive)

## CN(/N=C/c1ccc(N(C)C)cc1)C1=NS(=O)(=O)c2ccccc21
[21]
  EC50: 84.8 µM (active)
[22]
  EC50: 47 µM (active)
[23]
  IC50: 13.4 µM (inactive)
[24]
  EC50: > 99 µM (inactive)
[25]
  IC50: 23 µM (inactive)
[26]
  EC50: > 150 µM (not active)
[27]
  EC50: > 99 µM (inactive)
[28]
  IC50: 15 µM (inactive)
[29]
  EC50: 4.5 µM (active)
[30]
  EC50: 27.9 µM (active)

## O=C(O)c1coc(-c2ccc(F)cc2)n1
[31]
  EC50: > 100 µM (inactive)

## COc1ccc(NC(=O)c2ccc(Cl)nc2)cc1S(=O)(=O)N1CCOCC1
[32]
  AC50: 2.27 µM (active)
